The text below walks through data of patent US8916604B2, “Compositions and methods for epigenetic modification of nucleic acid sequences” (Rutgers, The State University of New Jersey, priority 2011, dated 2014).

SMILES strings stand for the structures.

Experiment [1] concerns antioxidant response element (ARE). As to the kind of experiment: ARE-luciferase reporter assay with combination index calculation. In kind it is cell-based, human. How it is done: The stably transfected single clone HepG2-ARE-C8 (HepG2-C8) cell line has been established previously in our laboratory using the […]-luciferase reporter gene. The cells were maintained in Dulbecco's modified Eagle medium supplemented with 10% fetal bovine serum (FBS), 1.17 g/l sodium bicarbonate, and 100 unit/ml penicillin, 100 μg/ml streptomycin at 37° C. in a humidified incubator with 5% CO2. The HepG2-C8 cells were cultured in 12-well plates and each well contained 1 million cells in 1 ml of 10% FRS medium. The cells were treated with compounds for 24 h. The luciferase activity was determined using a luciferase kit from Promega (Madison, USA) according to the manufacturer's instructions. Briefly, after treatments for 24 h, the cells were washed twice with ice-cold phosphate buffered-saline (PBS, pH 7.4) and harvested in 1× reporter lysis buffer and […]. After centrifugation at 4° C., 12000 rpm for 5 min, a 10 μl aliquot of the supernatant was assayed for luciferase activity with a Sirius luminometer (Berthold Detection System GmbH, Pforzheim, Germany). The luciferase activity was normalized against protein concentration, determined by a BCA protein assay (Pierce, Rockford, USA), and expressed as the fold induction over the luciferase activity of control vehicle-treated cells. At least two to three independent studies were conducted in triplicates. To determine the synergistic effect between the combination of two different compounds, the combination index (CI) was calculated with the following formula: […] This approach is based on the Loewe additivity model and although the exact mechanism of interaction may be unknown, this model is one of the most commonly used reference models for evaluating potential drug-drug interactions Lee et al., J Biopharm Stat 2007; 17: 461-480).

The next experiment has as its system HO-1. As to the kind of experiment: qPCR mRNA expression in HepG2-C8 cells. The experiment is classed as cell-based, human. The note with it: 25 μM, 6 h, vs 0.1% DMSO. How it is done: (§1) The cells were treated similarly to the NITS and ARE-luciferase assays described above using 10% FBS medium. The incubation of the compounds with the cells was terminated 6 h later. The mRNA expression was evaluated utilizing a quantitative real-time polymerase chain reaction (qPCR). An RNeasy kit from Qiagen was used for RNA extraction (Valencia, Calif.). The total RNA was reverse-transcribed to cDNA by TaqMan Reverse Transcription Reagents (Applied Biosystems Inc, Foster City, Calif.). SYBR Green (Applied Biosystems Inc, Foster City, Calif.) fluorescence was used to measure the product of qPCR. Glyceraldehyde 3-phosphate dehydrogenase (GAPDH) was used as the housekeeping gene, and the Applied Biosystems 7900HT Fast Real-Time PCR System (Applied Biosystems Inc, Foster City, Calif.) was used as described previously (Saw et al., Biochem Pharmacol 2010; 79: 421-430) to detect quantitatively the induction of mRNA of Nrf2, phase II DME GSTm2, NAD (P)H dehydrogenase, quinone 1 (NQO1), UGT family, polypeptide A1 (UGT1A1) and antioxidant enzymes HO-1, superoxide dismutase 1 (SOD1). The primer pairs were designed using the Primer Quest Oligo Design and Analysis Tool by Integrated DNA Technologies Inc. (Coralville, Iowa, USA) and the sequences are listed in Table 4. At least four wells of each treatment were performed and duplicate samples were carried out for each treatment.

In another experiment the test system is Nrf2. As to the kind of experiment: qPCR mRNA expression in HepG2-C8 cells. In kind it is cell-based, human. The note with it: 25 μM, 6 h, vs 0.1% DMSO. The protocol:
as §1
On the technique in general: In qPCR the cycle at which signal appears reflects the starting amount.

Experiment [2] relates to first 5 CpGs of Nrf2 gene promoter. As to the kind of experiment: Methylated DNA immunoprecipitation (MeDIP) in TRAMP C1 cells. In kind it is cell-based, mouse. How it is done:
The DIM used in the study contains approximately 98% of DIM purchased from Sigma-Aldrich t St. Louis, Mo., USA), TRAMP C1 cells (provided by Dr. Barbara Foster, Department of Pharmacology and Therapeutics, Roswell Park Cancer institute, Buffalo. NY), originally derived from TRAMP prostate tumor, were cultured in Dulbecco's Modified Eagle's Medium (Invitrogen Corp., Carlsbad, Calif. U.S.A.) supplemented with 10% (V/V) fetal bovine serum (FBS) (Invitrogen Corp., Grand Island, N.Y., U.S.A.), penicillin 100 U/ml, and streptomycin 100 μg/ml (Invitrogen Corp., Grand Island, N.Y., U.S.A.), Cells were maintained in a humidified incubator with 5% CO2 at 37° C. Cells were seeded in 10 cm plates for 24 h and then treated with 0.1% DMSO (control) or different concentrations of DIM in 1% FBS containing medium for 5 days. The medium was changed every 2 days (20),
Genomic DNA (8 μg each) extracted from control and DIM treated TRAMP C1 cells were used for the MeDIP analysis, analogous to other chromatin immuno-precipitation (ChIP) analysis. The DNAs were adjusted to 150 μl using TE buffer in DNA. LoBind tubes. DNAs were fragmented by sonication on ice-water using a Bioruptor sonicator (Diagnode Inc., Sparta, N.J., U.S.A.) and the size of sheared DNA fragment (around 300 to 500 bp) was checked by gel electrophoresis. […]

With `c1ccc2c(Cc3c[nH]c4ccccc34)c[nH]c2c1` [DIM, 3,3′-diindolylmethane], the “induction of ARE-luciferase” value in experiment [1] (75 μM, 24 h, compared with any other treatment (p<0.05)) is recorded as “strongly induced”; in experiment [1] (doses lower than 25 μM, 10% FBS medium (data not shown)), “no significant induction”. Besides, the “HO-1 mRNA induction over control” value in the experiment on HO-1 is on record as ~3 fold. Further, the “Nrf2 mRNA induction over control” value in the experiment on Nrf2 is ~3 fold. Moreover, the “methylated DNA bound by anti-mecyt antibody” value in experiment [2] is “reduced”.
